Reference: the supplement of paper PMC10307832

Assays:
Assay in all cases: relative viability (nuclei count vs DMSO), 5 days (fraction); higher = more cells survive
[1] = compound: C[C@@]1(C(=O)Nc2ccc(F)nc2)CCCN1c1nc(Nc2cc(C3CC3)n[nH]2)c2cccn2n1 + N=C(N)NC(=N)NCCc1ccccc1 [Phenformin] (partner 250 µM)
Procedure, shortened: (§1)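 After 5 days of treatment, lung cancer cells in 1536-well plates were fixed and stained in a single step (final 0.05% Triton X-100, 1% formaldehyde, 1 ug/ml Hoechst) and their nuclei counted on 4× images. Treatment had been applied by pin tool the day after seeding as one drug alone or as a fixed anchor-drug dose with five library-drug doses (not always all listed) in √10 steps. Relative viability is the nuclei count of treated wells divided by that of vehicle wells, and values are medians of duplicate plates.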

[2] = compound: C[C@@]1(C(=O)Nc2ccc(F)nc2)CCCN1c1nc(Nc2cc(C3CC3)n[nH]2)c2cccn2n1 + COc1cc2c(Oc3ccc(NC(=O)C4(C(=O)Nc5ccc(F)cc5)CC4)cc3F)ccnc2cc1OCCCN1CCOCC1 [Foretinib] (partner 0.25 µM)
Procedure, shortened: as §1

[3] = compound: C[C@@]1(C(=O)Nc2ccc(F)nc2)CCCN1c1nc(Nc2cc(C3CC3)n[nH]2)c2cccn2n1 + Nc1nc2[nH]cc(CCc3ccc(C(=O)N[C@@H](CCC(=O)O)C(=O)O)cc3)c2c(=O)[nH]1 [Pemetrexed] (partner 0.2 µM)
Procedure, shortened: as §1

[4] = compound: CC1(C)CNc2cc(NC(=O)c3cccnc3NCc3ccncc3)ccc21 [Motesanib] + CS(=O)(=O)N1CCN(Cc2cc3nc(-c4cccc5[nH]ncc45)nc(N4CCOCC4)c3s2)CC1 [Pictilisib] (partner 1 µM)
Procedure, shortened: as §1

UMC-11
relative viability ([1]; first compound 0.04 µM): 0.341
relative viability ([1]; first compound 0.1265 µM): 0.339
relative viability ([1]; first compound 0.4 µM): 0.347
relative viability ([1]; first compound 1.265 µM): 0.277
relative viability ([2]; first compound 0.04 µM): 1.09
relative viability ([2]; first compound 0.1265 µM): 1.12
relative viability ([2]; first compound 0.4 µM): 0.901
relative viability ([2]; first compound 1.265 µM): 0.299
relative viability ([3]; first compound 0.04 µM): 0.773
relative viability ([3]; first compound 0.1265 µM): 0.827
relative viability ([3]; first compound 0.4 µM): 0.705
relative viability ([3]; first compound 1.265 µM): 0.722
relative viability ([4]; first compound 0.01 µM): 0.778
relative viability ([4]; first compound 0.03162 µM): 0.923
relative viability ([4]; first compound 0.1 µM): 0.5
relative viability ([4]; first compound 0.3162 µM): 0.759
relative viability ([4]; first compound 1 µM): 0.863
